One experiment addresses EphB4 (Homo sapiens (Human), UniProt P54760). Kind of experiment: EphB4 kinase inhibition, 33P phosphoryl transfer assay (radiometric). It is filed as biochemical.
The target of another experiment is EphA2 (Homo sapiens (Human), UniProt P29317). Kind of experiment: EphA2 kinase inhibition, luciferase-coupled chemiluminescent assay (LCCA). The following applies: read-out: EphA2 IC50.
The target in another experiment is EGFR (Homo sapiens (Human), UniProt P00533). Kind of experiment: EGFR kinase inhibition, luciferase-coupled chemiluminescent assay (LCCA). As to conditions: read-out: EGFR IC50.

pIC50: −log10 of the molar value.

Chain of EphA2 (P29317 598-890): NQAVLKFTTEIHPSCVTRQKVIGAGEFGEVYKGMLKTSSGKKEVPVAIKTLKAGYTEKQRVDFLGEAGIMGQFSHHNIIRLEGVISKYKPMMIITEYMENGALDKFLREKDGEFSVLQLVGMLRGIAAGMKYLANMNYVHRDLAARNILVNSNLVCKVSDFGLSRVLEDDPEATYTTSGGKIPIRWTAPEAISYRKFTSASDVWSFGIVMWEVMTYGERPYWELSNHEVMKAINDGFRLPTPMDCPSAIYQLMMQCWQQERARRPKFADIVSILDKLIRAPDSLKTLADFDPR
Chain of EGFR (P00533 672-1210): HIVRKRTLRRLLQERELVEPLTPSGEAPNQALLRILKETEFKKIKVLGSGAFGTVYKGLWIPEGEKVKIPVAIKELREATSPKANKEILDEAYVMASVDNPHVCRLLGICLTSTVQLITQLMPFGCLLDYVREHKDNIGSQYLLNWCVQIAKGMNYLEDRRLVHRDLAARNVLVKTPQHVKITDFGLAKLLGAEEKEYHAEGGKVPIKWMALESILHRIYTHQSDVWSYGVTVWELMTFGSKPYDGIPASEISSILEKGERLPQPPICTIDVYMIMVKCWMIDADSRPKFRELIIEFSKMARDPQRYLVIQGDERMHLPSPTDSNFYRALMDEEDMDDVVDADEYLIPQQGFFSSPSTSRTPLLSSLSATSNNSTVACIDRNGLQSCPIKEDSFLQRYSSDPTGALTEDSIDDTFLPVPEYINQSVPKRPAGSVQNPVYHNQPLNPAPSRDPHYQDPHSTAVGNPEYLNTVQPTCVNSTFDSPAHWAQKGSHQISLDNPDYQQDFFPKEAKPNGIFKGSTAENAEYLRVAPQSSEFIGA
Chain of EphB4 (P54760 605-890): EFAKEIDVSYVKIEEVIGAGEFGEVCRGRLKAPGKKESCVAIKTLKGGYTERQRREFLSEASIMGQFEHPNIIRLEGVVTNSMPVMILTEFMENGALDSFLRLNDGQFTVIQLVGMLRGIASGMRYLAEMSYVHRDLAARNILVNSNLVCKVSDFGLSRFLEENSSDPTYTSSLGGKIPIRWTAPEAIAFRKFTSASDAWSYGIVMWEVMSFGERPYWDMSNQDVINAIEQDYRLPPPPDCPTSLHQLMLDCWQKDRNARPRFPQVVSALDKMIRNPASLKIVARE

For the compound `COc1cc2c(Nc3ccc(Cl)c(Cl)c3)ncnc2cc1OCc1csc(C2CCN(C)CC2)n1` [Example 214, N-(3,4-dichlorophenyl)-6-(methyloxy)-7-({[2-(1-methylpiperidin-4-yl)-1,3-thiazol-4-yl]methyl}oxy)quinazolin-4-amine], the negative logarithm of the IC50 (pIC50) at EphB4 is over 7.30; at EphA2 it was 6.00 to 7.30; at EGFR it was over 7.30.
As for `CCN1CCCCC1c1nc(COc2cc3ncnc(Nc4ccc(Cl)c(Cl)c4)c3cc2OC)no1` (stereo not drawn) [Example 219, N-(3,4-dichlorophenyl)-7-({[5-(1-ethylpiperidin-2-yl)-1,2,4-oxadiazol-3-yl]methyl}oxy)-6-(methyloxy)quinazolin-4-amine], the pIC50 was 6.00 to 7.30 at EphB4, 6.00 to 7.30 at EphA2 and over 7.30 on EGFR.
`CCN1CCN(c2noc(COc3cc4ncnc(Nc5ccc(Cl)c(Cl)c5)c4cc3OC)n2)CC1` [Example 220, N-(3,4-dichlorophenyl)-7-({[3-(4-ethylpiperazin-1-yl)-1,2,4-oxadiazol-5-yl]methyl}oxy)-6-(methyloxy)quinazolin-4-amine]: the pIC50 is 6.00 to 7.30 at EphB4, 6.00 to 7.30 on EphA2 and over 7.30 at EGFR.
Regarding `COc1cc2c(Nc3ccc(Cl)c(Cl)c3)ncnc2cc1OCc1csc(-c2ccc(Cl)cc2)n1` [Example 223, 7-({[2-(4-chlorophenyl)-1,3-thiazol-4-yl]methyl}oxy)-N-(3,4-dichlorophenyl)-6-(methyloxy)quinazolin-4-amine], the figures for the pIC50 on EphB4, on EphA2 and on EGFR were 6.00 to 7.30, 6.00 to 7.30 and over 7.30, respectively.
Consider `COc1cc2c(Nc3ccc(Cl)c(Cl)c3)ncnc2cc1OCc1noc(-c2c(C)noc2C)n1` [Example 224, N-(3,4-dichlorophenyl)-7-({[5-(3,5-dimethylisoxazol-4-yl)-1,2,4-oxadiazol-3-yl]methyl}oxy)-6-(methyloxy)quinazolin-4-amine], for which the pIC50 was 6.00 to 7.30 on EphB4, 6.00 to 7.30 on EphA2 and over 7.30 at EGFR.
Regarding `COc1cc2c(Nc3ccc(Cl)c(Cl)c3)ncnc2cc1OCc1csc2ccc(Cl)cc12` [Example 225, 7-{[(5-chloro-1-benzothien-3-yl)methyl]oxy}-N-(3,4-dichlorophenyl)-6-(methyloxy)quinazolin-4-amine], the negative-log IC50 (pIC50) against EphB4 was 4.70 to 6.00; at EphA2, 4.70 to 6.00; at EGFR it was over 7.30.
Turning to `COc1cc2c(Nc3ccc(Cl)c(Cl)c3)ncnc2cc1OCc1noc(-c2ccccc2OC)n1` [Example 227, N-(3,4-dichlorophenyl)-6-(methyloxy)-7-[({5-[2-(methyloxy)phenyl]-1,2,4-oxadiazol-3-yl}methyl)oxy]quinazolin-4-amine], the results for the negative logarithm of the IC50 (pIC50) at EphB4, at EphA2 and at EGFR were over 7.30, 6.00 to 7.30 and over 7.30, respectively.
Take `COc1cc2c(Nc3ccc(Cl)c(Cl)c3)ncnc2cc1OCc1nnc(-c2ccc(C)cc2)o1` [Example 228, N-(3,4-dichlorophenyl)-6-(methyloxy)-7-({[5-(4-methylphenyl)-1,3,4-oxadiazol-2-yl]methyl}oxy)quinazolin-4-amine]: the figures for the pIC50 on EphB4, on EphA2 and on EGFR were over 7.30, 6.00 to 7.30 and over 7.30, respectively.
Turning to `COc1cc2c(Nc3ccc(Cl)c(Cl)c3)ncnc2cc1OCc1nccn1Cc1ccccc1` [Example 229, N-(3,4-dichlorophenyl)-6-(methyloxy)-7-({[1-(phenylmethyl)-lH-imidazol-2-yl]methyl}oxy)quinazolin-4-amine], the negative-log IC50 (pIC50) was 6.00 to 7.30 against EphB4, 4.70 to 6.00 at EphA2 and over 7.30 at EGFR.
Taken in the same sequence, the figures for `COc1cc2c(Nc3ccc(Cl)c(Cl)c3)ncnc2cc1OCc1csc(N(C)C)n1` [Example 240, N-(3,4-dichlorophenyl)-7-({[2-(dimethylamino)-1,3-thiazol-4-yl]methyl}oxy)-6-(methyloxy)quinazolin-4-amine] were over 7.30, 6.00 to 7.30 and over 7.30.
Regarding `CCN1CCCOC(COc2cc3ncnc(Nc4ccc(Cl)c(Cl)c4)c3cc2OC)C1` (stereo not drawn) [Example 241, N-(3,4-dichlorophenyl)-7-{[(4-ethyl-1,4-oxazepan-2-yl)methyl]oxy}-6-(methyloxy)quinazolin-4-amine], the pIC50 against EphB4, at EphA2 and at EGFR was over 7.30 throughout.
Turning to `COc1cc2c(Nc3ccc(Cl)c(Cl)c3)ncnc2cc1OCc1csc(CO)n1` [Example 246, [4-({[4-[(3,4-dichlorophenyl)amino]-6-(methyloxy)quinazolin-7-yl]oxy}methyl)-1,3-thiazol-2-yl]methanol], the negative-log IC50 (pIC50) at EphB4, on EphA2 and at EGFR was over 7.30 in each case.
Turning to `COc1cc2c(Nc3ccc(Cl)c(Cl)c3)ncnc2cc1OCc1csc([C@@H]2CSCN2)n1` [Example 248, N-(3,4-dichlorophenyl)-6-(methyloxy)-7-[({2-[(4S)-1,3-thiazolidin-4-yl]-1,3-thiazol-4-yl}methyl)oxy]quinazolin-4-amine], the pIC50 against EphB4 was 6.00 to 7.30; at EphA2, 6.00 to 7.30; on EGFR, over 7.30.
With `COc1cc2c(Nc3ccc(Cl)c(Cl)c3)ncnc2cc1OCc1csc(C2CCCCN2)n1` (stereo not drawn) [Example 249, N-(3,4-dichlorophenyl)-6-(methyloxy)-7-{[(2-piperidin-2-yl-1,3-thiazol-4-yl)methyl]oxy}quinazolin-4-amine], the pIC50 against EphB4 is 6.00 to 7.30; on EphA2, 6.00 to 7.30; on EGFR it was over 7.30.
As to `COc1cc2c(Nc3ccc(Cl)c(Cl)c3)ncnc2cc1OCc1csc(C2CCCCN2C)n1` (stereo not drawn) [Example 250, N-(3,4-dichlorophenyl)-6-(methyloxy)-7-({[2-(1-methylpiperidin-2-yl)-1,3-thiazol-4-yl]methyl}oxy)quinazolin-4-amine], the pIC50 is 6.00 to 7.30 against EphB4, 6.00 to 7.30 at EphA2 and over 7.30 on EGFR.
As for `COc1cc2c(Nc3ccc(Cl)c(Cl)c3)ncnc2cc1OCc1csc(C2CCCNC2)n1` (stereo not drawn) [Example 251, N-(3,4-dichlorophenyl)-6-(methyloxy)-7-{[(2-piperidin-3-yl-1,3-thiazol-4-yl)methyl]oxy}quinazolin-4-amine], the pIC50 on EphB4 was 6.00 to 7.30; at EphA2 it was 4.70 to 6.00; at EGFR, over 7.30.
Taken in the same sequence, the figures for `CCN1CCCCC1c1nc(COc2cc3ncnc(Nc4ccc(Cl)c(Cl)c4)c3cc2OC)cs1` (stereo not drawn) [Example 253, N-(3,4-dichlorophenyl)-7-({[2-(1-ethylpiperidin-2-yl)-1,3-thiazol-4-yl]methyl}oxy)-6-(methyloxy)quinazolin-4-amine] were 4.70 to 6.00, 4.70 to 6.00 and over 7.30.
As to `CCN1CCCC(c2nc(COc3cc4ncnc(Nc5ccc(Cl)c(Cl)c5)c4cc3OC)cs2)C1` (stereo not drawn) [Example 254, N-(3,4-dichlorophenyl)-7-({[2-(1-ethylpiperidin-3-yl)-1,3-thiazol-4-yl]methyl}oxy)-6-(methyloxy)quinazolin-4-amine], the figures for the pIC50 against EphB4, on EphA2 and at EGFR were 6.00 to 7.30, 4.70 to 6.00 and over 7.30, respectively.
As to `COCCN1CCCOC(COc2cc3ncnc(Nc4ccc(Cl)c(Cl)c4)c3cc2OC)C1` (stereo not drawn) [Example 260, N-(3,4-dichlorophenyl)-6-(methyloxy)-7-[({4-[2-(methyloxy)ethyl]-1,4-oxazepan-2-yl}methyl)oxy]quinazolin-4-amine], the negative logarithm of the IC50 (pIC50) against EphB4 is 6.00 to 7.30; at EphA2, 4.70 to 6.00; on EGFR, over 7.30.
As for `COc1cc2c(Nc3ccc(Cl)c(Cl)c3)ncnc2cc1OCC1CN(C(C)C)CCCO1` (stereo not drawn) [Example 261, N-(3,4-dichlorophenyl)-7-({[4-(1-methylethyl)-1,4-oxazepan-2-yl]methyl}oxy)-6-(methyloxy)quinazolin-4-amine], the pIC50 against EphB4 was 6.00 to 7.30; at EphA2 it was 4.70 to 6.00; on EGFR, over 7.30.
Taken in the same sequence, the figures for `COc1cc2c(Nc3ccc(Cl)c(Cl)c3)ncnc2cc1OCc1csc(N2CCNCC2)n1` [Example 262, N-(3,4-dichlorophenyl)-6-(methyloxy)-7-{[(2-piperazin-1-yl-1,3-thiazol-4-yl)methyl]oxy}quinazolin-4-amine] were 6.00 to 7.30, 4.70 to 6.00 and over 7.30.
For `COc1cc2c(Nc3ccc(Cl)c(Cl)c3)ncnc2cc1OCc1noc(C2CCCN2)n1` (stereo not drawn) [Example 263, N-(3,4-dichlorophenyl)-6-(methyloxy)-7-{[(5-pyrrolidin-2-yl-1,2,4-oxadiazol-3-yl)methyl]oxy}quinazolin-4-amine], the negative logarithm of the IC50 (pIC50) against EphB4 was 6.00 to 7.30; on EphA2, 4.70 to 6.00; on EGFR, over 7.30.
Turning to `CCN1CCCC1c1nc(COc2cc3ncnc(Nc4ccc(Cl)c(Cl)c4)c3cc2OC)no1` (stereo not drawn) [Example 264, N-(3,4-dichlorophenyl)-7-({[5-(1-ethylpyrrolidin-2-yl)-1,2,4-oxadiazol-3-yl]methyl}oxy)-6-(methyloxy)quinazolin-4-amine], the pIC50 against EphB4 is 6.00 to 7.30; on EphA2, 4.70 to 6.00; on EGFR it was over 7.30.
With `COc1cc2c(Nc3ccc(Cl)c(Cl)c3)ncnc2cc1OCc1nc([C@@H]2CCCN2C)no1` [Example 265, N-(3,4-dichlorophenyl)-6-(methyloxy)-7-[({3-[(2S)-1-methylpyrrolidin-2-yl]-1,2,4-oxadiazol-5-yl}methyl)oxy]quinazolin-4-amine], the pIC50 on EphB4 is 6.00 to 7.30; at EphA2 it was 4.70 to 6.00; on EGFR, over 7.30.
On to `COc1cc2c(Nc3ccc(Cl)c(Cl)c3)ncnc2cc1OCc1csc([C@@H]2CCCN2C)n1` [Example 266, N-(3,4-dichlorophenyl)-6-(methyloxy)-7-[({2-[(2S)-1-methylpyrrolidin-2-yl]-1,3-thiazol-4-yl}methyl)oxy]quinazolin-4-amine], for which the pIC50 at EphB4 was 6.00 to 7.30; on EphA2, 4.70 to 6.00; at EGFR, over 7.30.

In general, pIC50 refers to −log10 of the IC50, conventionally taken in molar units.
